Common to all, as to assay type: biochemical
Experiment [1] addresses EGFR Δ746-750 mutant (Homo sapiens (Human), UniProt P00533, DEL746-750). The experiment can be described thus: HotSpot radiometric kinase assay, EGFR Δ746-750 mutant. The conditions noted are these: 10 μM ATP. Here is the method: (§1) Biochemical Assays for Inhibition of Wild-Type and Mutant EGFRs
(§2) Briefly, specific kinase/substrate pairs along with required cofactors were prepared in reaction buffer; 20 mM Hepes pH 7.5, 10 mM […], 1 mM EGTA, 0.02% Brij35, 0.02 mg/ml BSA, 0.1 mM Na3VO4, 2 mM DTT, 1% DMSO. Compounds were delivered into the reaction, followed […] later by addition of a mixture of ATP (Sigma, St. Louis MO) and ^33P ATP (Perkin Elmer, Waltham MA) to a final concentration of 10 μM. Reactions were carried out at room temperature for 120 min, followed by spotting of the reactions onto P81 ion exchange filter paper (Whatman Inc., Piscataway, NJ). Unbound phosphate was removed by extensive washing of filters in 0.75% phosphoric acid. […] IC50 values and curve fits were obtained using Prism (GraphPad Software).

The target in experiment [2] is EGFR Δ746-750/C797S mutant (Homo sapiens (Human), UniProt P00533, C797S/DEL746-750). In words: HotSpot radiometric kinase assay, EGFR Δ746-750/C797S mutant. To be noted: 10 μM ATP. As to the method:
as §1, §2

Experiment [3] has as its target EGFR L858R/T790M/C797S mutant (Homo sapiens (Human), UniProt P00533, C797S/L858R/T790M). In words: HotSpot radiometric kinase assay, EGFR L858R/T790M/C797S mutant. The conditions noted are these: 10 μM ATP. As to the method: as §1, §2
Experiment [4] deals with EGFR WT (Homo sapiens (Human), UniProt P00533). In words: HotSpot radiometric kinase assay (Reaction Biology), EGFR WT. To be noted: 10 μM ATP. As to the method:
as §1, §2

Experiment [5] has as its target EGFR L858R mutant (Homo sapiens (Human), UniProt P00533, L858R). The experiment can be described thus: HotSpot radiometric kinase assay, EGFR L858R mutant. The conditions noted are these: 10 μM ATP. Here is the method: as §1, §2
The target of experiment [6] is EGFR L858R/T790M mutant (Homo sapiens (Human), UniProt P00533, L858R/T790M). The experiment can be described thus: HotSpot radiometric kinase assay, EGFR L858R/T790M mutant. The conditions noted are these: 10 μM ATP. Here is the method: as §1, §2
EGFR L858R/T790M mutant, sequence (P00533 25-1210 T790M/L858R): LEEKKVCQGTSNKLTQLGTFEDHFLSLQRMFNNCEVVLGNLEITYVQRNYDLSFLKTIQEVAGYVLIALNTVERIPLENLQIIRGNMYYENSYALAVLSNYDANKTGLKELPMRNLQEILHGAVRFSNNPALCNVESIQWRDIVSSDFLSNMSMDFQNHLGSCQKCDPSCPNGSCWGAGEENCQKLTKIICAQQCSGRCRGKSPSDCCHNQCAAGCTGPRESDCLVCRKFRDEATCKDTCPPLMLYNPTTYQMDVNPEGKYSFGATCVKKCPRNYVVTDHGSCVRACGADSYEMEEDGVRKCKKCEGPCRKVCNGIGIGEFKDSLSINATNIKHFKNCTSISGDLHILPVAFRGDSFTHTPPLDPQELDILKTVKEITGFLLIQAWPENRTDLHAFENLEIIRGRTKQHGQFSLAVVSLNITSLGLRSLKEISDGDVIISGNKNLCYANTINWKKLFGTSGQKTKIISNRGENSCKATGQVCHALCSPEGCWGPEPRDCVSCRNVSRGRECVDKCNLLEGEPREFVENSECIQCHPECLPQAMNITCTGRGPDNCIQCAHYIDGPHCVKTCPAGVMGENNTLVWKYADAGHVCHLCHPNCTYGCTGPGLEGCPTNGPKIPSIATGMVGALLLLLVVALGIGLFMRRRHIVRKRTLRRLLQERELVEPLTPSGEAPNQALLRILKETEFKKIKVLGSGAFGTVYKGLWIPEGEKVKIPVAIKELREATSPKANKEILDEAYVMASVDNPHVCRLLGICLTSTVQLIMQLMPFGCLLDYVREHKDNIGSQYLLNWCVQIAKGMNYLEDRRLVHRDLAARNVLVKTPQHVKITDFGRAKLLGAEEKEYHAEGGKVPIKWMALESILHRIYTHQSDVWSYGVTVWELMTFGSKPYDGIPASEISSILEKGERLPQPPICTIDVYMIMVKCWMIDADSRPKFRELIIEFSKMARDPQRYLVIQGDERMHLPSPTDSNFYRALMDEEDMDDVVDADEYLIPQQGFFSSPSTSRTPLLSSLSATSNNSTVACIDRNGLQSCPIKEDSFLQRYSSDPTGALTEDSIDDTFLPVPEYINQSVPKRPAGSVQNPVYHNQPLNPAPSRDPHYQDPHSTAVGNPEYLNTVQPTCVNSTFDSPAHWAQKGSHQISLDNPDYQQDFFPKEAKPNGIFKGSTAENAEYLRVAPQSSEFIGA
In experiment [7] the target is EGFR (D770_N771insNPG) (Homo sapiens (Human), UniProt P00533, INS770NPG). In words: HotSpot radiometric kinase assay, EGFR (D770_N771insNPG). The conditions noted are these: 10 μM ATP, read-out: EGFR (Δ770_N771insNPG) IC50. Here is the method:
as §1, §2

Where only a bound is given, the exact number is not on record here.

EGFR L858R/T790M/C797S mutant, sequence (P00533 25-1210 T790M/C797S/L858R): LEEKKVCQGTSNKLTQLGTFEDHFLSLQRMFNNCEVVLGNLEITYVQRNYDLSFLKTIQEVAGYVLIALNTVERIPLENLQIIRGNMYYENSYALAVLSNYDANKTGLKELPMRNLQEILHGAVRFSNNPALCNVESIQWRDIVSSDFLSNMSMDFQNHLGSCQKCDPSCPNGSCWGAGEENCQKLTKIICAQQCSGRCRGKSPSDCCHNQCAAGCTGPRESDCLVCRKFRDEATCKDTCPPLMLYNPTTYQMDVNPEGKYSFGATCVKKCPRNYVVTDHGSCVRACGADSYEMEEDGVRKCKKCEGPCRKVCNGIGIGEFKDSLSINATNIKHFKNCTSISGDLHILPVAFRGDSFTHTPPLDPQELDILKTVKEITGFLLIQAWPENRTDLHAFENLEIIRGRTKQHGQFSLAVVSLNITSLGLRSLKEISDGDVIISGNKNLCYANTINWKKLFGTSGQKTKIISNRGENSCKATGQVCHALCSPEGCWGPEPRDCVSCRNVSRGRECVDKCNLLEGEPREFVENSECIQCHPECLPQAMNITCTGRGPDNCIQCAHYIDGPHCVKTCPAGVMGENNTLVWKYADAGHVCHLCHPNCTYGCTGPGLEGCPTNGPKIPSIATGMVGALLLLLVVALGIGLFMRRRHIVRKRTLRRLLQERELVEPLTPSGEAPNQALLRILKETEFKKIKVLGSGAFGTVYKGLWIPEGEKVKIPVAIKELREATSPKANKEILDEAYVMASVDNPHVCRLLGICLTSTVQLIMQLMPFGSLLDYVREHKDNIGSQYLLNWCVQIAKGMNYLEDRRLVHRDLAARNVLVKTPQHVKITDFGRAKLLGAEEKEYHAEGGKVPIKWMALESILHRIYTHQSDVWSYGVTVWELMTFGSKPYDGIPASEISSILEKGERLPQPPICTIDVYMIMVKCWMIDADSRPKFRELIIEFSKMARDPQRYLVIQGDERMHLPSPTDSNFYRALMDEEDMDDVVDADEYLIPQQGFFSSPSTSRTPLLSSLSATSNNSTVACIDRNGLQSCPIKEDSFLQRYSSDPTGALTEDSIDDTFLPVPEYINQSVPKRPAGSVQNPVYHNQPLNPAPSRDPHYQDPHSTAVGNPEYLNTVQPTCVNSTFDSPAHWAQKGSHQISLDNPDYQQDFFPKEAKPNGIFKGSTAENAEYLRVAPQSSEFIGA
EGFR L858R mutant, sequence (P00533 25-1210 L858R): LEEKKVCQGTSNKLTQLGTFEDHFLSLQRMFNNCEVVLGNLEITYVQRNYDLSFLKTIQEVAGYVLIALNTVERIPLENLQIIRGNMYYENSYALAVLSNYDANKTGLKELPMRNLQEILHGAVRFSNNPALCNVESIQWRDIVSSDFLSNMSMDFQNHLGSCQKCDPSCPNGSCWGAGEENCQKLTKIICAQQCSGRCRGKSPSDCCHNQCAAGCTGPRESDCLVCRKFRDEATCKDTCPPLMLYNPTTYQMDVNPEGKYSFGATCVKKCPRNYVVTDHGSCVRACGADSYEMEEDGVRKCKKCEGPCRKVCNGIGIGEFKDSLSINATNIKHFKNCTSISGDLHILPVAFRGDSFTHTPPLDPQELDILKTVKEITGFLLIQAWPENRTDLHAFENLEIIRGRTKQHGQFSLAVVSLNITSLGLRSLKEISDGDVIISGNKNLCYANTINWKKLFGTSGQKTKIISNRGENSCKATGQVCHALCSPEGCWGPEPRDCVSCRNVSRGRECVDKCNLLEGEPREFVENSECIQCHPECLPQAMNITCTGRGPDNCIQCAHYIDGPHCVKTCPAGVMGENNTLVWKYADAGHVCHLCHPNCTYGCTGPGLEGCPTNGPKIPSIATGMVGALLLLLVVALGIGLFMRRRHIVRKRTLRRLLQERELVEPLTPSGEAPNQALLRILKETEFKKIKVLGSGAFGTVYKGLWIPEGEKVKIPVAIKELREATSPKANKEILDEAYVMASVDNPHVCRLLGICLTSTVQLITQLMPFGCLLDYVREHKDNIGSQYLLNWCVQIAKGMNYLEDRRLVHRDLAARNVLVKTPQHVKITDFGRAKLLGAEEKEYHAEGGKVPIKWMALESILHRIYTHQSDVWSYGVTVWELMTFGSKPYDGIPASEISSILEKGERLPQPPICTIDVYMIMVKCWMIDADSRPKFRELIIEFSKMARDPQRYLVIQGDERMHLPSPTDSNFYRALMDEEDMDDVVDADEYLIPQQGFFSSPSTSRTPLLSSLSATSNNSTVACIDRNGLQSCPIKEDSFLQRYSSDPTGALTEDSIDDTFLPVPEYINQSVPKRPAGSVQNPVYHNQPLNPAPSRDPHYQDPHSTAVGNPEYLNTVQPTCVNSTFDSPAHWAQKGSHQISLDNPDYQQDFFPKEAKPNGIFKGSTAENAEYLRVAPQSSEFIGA
EGFR WT, sequence (P00533 25-1210): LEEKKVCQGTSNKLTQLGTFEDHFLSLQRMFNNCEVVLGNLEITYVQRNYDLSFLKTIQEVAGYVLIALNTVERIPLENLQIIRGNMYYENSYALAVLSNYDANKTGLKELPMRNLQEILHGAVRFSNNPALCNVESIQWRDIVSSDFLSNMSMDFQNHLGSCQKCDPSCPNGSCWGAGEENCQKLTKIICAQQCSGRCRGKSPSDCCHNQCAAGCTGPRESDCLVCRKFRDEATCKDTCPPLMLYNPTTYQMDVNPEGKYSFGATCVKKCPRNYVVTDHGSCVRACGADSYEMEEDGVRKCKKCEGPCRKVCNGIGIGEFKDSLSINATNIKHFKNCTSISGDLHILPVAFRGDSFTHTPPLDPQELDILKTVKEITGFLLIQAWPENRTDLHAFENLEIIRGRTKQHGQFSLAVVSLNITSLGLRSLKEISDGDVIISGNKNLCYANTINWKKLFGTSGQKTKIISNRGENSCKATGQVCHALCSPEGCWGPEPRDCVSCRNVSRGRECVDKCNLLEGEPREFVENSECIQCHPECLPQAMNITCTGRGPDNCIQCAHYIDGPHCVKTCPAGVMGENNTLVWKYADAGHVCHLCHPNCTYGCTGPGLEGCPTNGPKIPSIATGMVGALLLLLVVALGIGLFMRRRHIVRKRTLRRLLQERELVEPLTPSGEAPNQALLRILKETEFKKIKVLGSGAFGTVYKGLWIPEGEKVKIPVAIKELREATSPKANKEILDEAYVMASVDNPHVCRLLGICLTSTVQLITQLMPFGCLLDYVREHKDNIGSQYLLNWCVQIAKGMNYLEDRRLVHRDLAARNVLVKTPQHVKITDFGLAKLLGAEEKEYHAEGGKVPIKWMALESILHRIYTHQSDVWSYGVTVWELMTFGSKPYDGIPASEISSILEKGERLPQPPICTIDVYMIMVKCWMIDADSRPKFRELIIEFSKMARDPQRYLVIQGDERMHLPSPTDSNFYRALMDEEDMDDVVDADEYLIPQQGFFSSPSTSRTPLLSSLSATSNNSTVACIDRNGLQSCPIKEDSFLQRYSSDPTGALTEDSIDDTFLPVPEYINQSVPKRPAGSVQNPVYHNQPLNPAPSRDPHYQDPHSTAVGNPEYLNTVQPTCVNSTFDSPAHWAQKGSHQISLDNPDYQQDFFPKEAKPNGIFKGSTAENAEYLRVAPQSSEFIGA

What is called IC50 is the concentration needed to halve the response being measured. For `Cc1nn(C)c2c1/C=C/c1n[nH]c3ccc(cc13)-c1cnn(C)c1CN(C)C[C@@H](C)O2` (single isomer, unassigned) [Example 96], the IC50 was 285 nM in experiment [1]; 94.1 nM in experiment [2]; 9.45 nM in experiment [3]; 242 nM in experiment [4]; 74.9 nM in experiment [5]; 5.29 nM in experiment [6]. Moreover, the IC50 in experiment [7] is 196 nM.

Turning to `Cn1ncc2c1OCCN1CC[C@@H](Oc3ccccc3/C=C/c3n[nH]c4ccc-2cc34)C1=O` [Example 70, (10R,16E)-3-methyl-3,5,6,9,10,19-hexahydro-8H-20,22-etheno-7,10-methanodipyrazolo[3,4-i:4,3′-m][1,8,5]benzodioxazacyclooctadecin-25-one], the 50% inhibitory concentration (IC50) in experiment [1] was 32.3 nM; in experiment [2], 27.1 nM; in experiment [3], 3.68 nM; in experiment [4], 98.7 nM; in experiment [5], 70.1 nM; in experiment [6], 3.81 nM. In experiment [7], the IC50 is 73.6 nM.

For `CN1CCN(c2ccc3c(c2)OC2CCN(CCOc4c(cnn4C)-c4ccc5[nH]nc(c5c4)/C=C/3)C2=O)CC1` (stereo in doubt) [Example 131], the IC50 in experiment [1] was 1.65 nM; in experiment [2] it was 4.09 nM; in experiment [3], 1.9 nM; in experiment [4], 17.7 nM; in experiment [5], 4.02 nM; in experiment [6], 0.57 nM. The IC50 in experiment [7] is 6.79 nM.

Consider `Cn1ncc2c1COCCOc1ccccc1/C=C/c1n[nH]c3ccc-2cc13` [Ex. 1, (11E)-1-methyl-1,18,19,21-tetrahydro-8H-10,7,4-(ethan[1]yl[1,2]diylidene)pyrazolo[3,4-f][1,4,12,13]benzodioxadiazacyclooctadecine], for which the IC50 in experiment [1] is 68.4 nM; in experiment [2] it was 177 nM; in experiment [3], 259 nM; in experiment [4], more than 1000 nM; in experiment [5], 848 nM; in experiment [6], 251 nM. Further, the IC50 in experiment [7] was more than 1000 nM.

As for `CCc1nn(CCO)c2c1/C=C/c1n[nH]c3ccc(cc13)-c1cnn(C)c1O[C@@H](C)CN(C)C2` [Example 129, 2-[(10S,17E)-16-ethyl-8,10,12-trimethyl-2,8,10,11,12,13-hexahydro-14H-3,5-ethenotripyrazolo[3,4-f:3′,4′-j:4″,3″-n][1,4]oxazacyclopentadecin-14-yl]ethan-1-ol], the IC50 was 0.58 nM in experiment [1]; 0.4 nM in experiment [2]; 0.33 nM in experiment [3]; 3.02 nM in experiment [4]; 0.47 nM in experiment [5]; 0.09 nM in experiment [6]. In addition, in experiment [7], the half-inhibitory concentration (IC50) was found to be 6.5 nM.

`Cc1nn([C@H]2CN(C)C[C@@H]2O)c2c1/C=C/c1n[nH]c3ccc(cc13)-c1cnn(C)c1OCCCO2` (racemic) [Example 75, (rac)-4-[(17E)-8,16-dimethyl-2,8,11,12-tetrahydro-10H,14H-3,5-etheno[1,5]dioxacyclopentadecino[10,11-c:15,14-c′:6,7-c″]tripyrazol-14-yl]-1-methylpyrrolidin-3-ol]: the IC50 worked out at 59.7 nM in experiment [1]; 28.5 nM in experiment [2]; 21.2 nM in experiment [3]; 295 nM in experiment [4]; 55.9 nM in experiment [5]; 17.5 nM in experiment [6]. In addition, the IC50 in experiment [7] is 84.3 nM.

As for `Cc1nn(C)c2c1CN(C)C[C@H](C)Oc1c(cnn1C)-c1ccc3[nH]nc(c3c1)/C=C/2` [Example 130, (10S,17E)-8,10,12,14,16-pentamethyl-2,10,11,12,13,16-hexahydro-8H-3,5-ethenotripyrazolo[4,3-f:3′,4′-j:4″,3″- n][1,4]oxazacyclopentadecine], the IC50 was 81.1 nM in experiment [1]; 38.4 nM in experiment [2]; 5.66 nM in experiment [3]; 457 nM in experiment [4]; 84.3 nM in experiment [5]; 7.32 nM in experiment [6]. The IC50 in experiment [7] was determined as 851 nM.

On to `Cc1c2c(nn1[C@H]1C[C@@H](NCCN(C)C)C1)OCCCOc1c(cnn1C)-c1ccc3[nH]nc(c3c1)/C=C/2` [Example 107, N^2-{(1s,3s)-3-[(17E)-8,16-dimethyl-2,8,11,12-tetrahydro-10H,15H-3,5-etheno[1,5]dioxacyclopentadecino[10,11-c:15,14-c′:6,7-c″]tripyrazol-15-yl]cyclobutyl}-N^1,N^1-dimethylethane-1,2-diamine], for which the IC50 amounted to 34.1 nM in experiment [1]; 42.2 nM in experiment [2]; 11.3 nM in experiment [3]; 41.9 nM in experiment [4]; 13.6 nM in experiment [5]; 2.28 nM in experiment [6]. Besides, the IC50 in experiment [7] is 66.5 nM.

Turning to `Cc1c2c(nn1CCO)OCCOC(C)c1c(cnn1C)-c1ccc3[nH]nc(c3c1)/C=C/2` (stereo not drawn) [Example 79, 2-[(17E)-8,9,16-trimethyl-8,9,11,12-tetrahydro-3,5-etheno[1,4]dioxacyclopentadecino[11,10-c:15,14-c′:6,7-c″ ]tripyrazol-15(2H)-yl]ethan-1-ol], the IC50 stood at 596 nM in experiment [1]; 284 nM in experiment [2]; 67.7 nM in experiment [3]; 1910 nM in experiment [4]; 526 nM in experiment [5]; 57.1 nM in experiment [6]. Moreover, the IC50 in experiment [7] amounted to 951 nM.

Consider `Cc1nn([C@H]2COC[C@@H]2O)c2c1/C=C/c1n[nH]c3ccc(cc13)-c1cnn(C)c1OCCCO2` (single isomer, unassigned) [Example 76], for which the IC50 in experiment [1] amounted to 147 nM; in experiment [2], 90.8 nM; in experiment [3], 63.4 nM; in experiment [4], 538 nM; in experiment [5] it was 156 nM; in experiment [6] it was 42.9 nM. Besides, the IC50 in experiment [7] was 233 nM.

In the case of `Cc1nn(CCO)c2c1/C=C/c1n[nH]c3ccc(cc13)-c1cnn(C)c1CN(C)CCO2` [Example 56, 2-[(17E)-8,10,16-trimethyl-2,8,9,10,11,12-hexahydro-14H-3,5-ethenotripyrazolo[3,4-f:4′,3′-j:4″,3″- n][1,4]oxazacyclopentadecin-14-yl]ethan-1-ol], the IC50 turned out to be 15 nM in experiment [1]; 8.48 nM in experiment [2]; 1.12 nM in experiment [3]; 42.7 nM in experiment [4]; 22.2 nM in experiment [5]; 1.22 nM in experiment [6]. Also, the IC50 in experiment [7] was found to be 50 nM.

For the compound `CN(C)Cc1ccc2c(c1)O[C@@H]1CCN(CCOc3c(cnn3C)-c3ccc4[nH]nc(c4c3)/C=C/2)C1=O` [Example 94, (10R,16E)-13-[(dimethylamino)methyl]-3-methyl-3,5,6,9,10,19-hexahydro-8H-20,22-etheno-7,10-methanodipyrazolo[3,4-i:4′,3′-m][1,8,5]benzodioxazacyclooctadecin-25-one], the IC50 in experiment [1] is 17.6 nM; in experiment [2] it was 14.1 nM; in experiment [3], 5.75 nM; in experiment [4], 44.1 nM; in experiment [5] it was 9.99 nM; in experiment [6] it was 0.82 nM. Also, in experiment [7], the IC50 was 17.2 nM.

`CCc1nn(C)c2c1/C=C/c1n[nH]c3ccc(cc13)-c1cnn(C)c1OCC[C@H](C)O2` [Ex. 14, (12S,17E)-16-ethyl-8,12,14-trimethyl-2,11,12,14-tetrahydro-8H,10H-3,5-etheno[1,5]dioxacyclopentadecino[10,11-c:15,14-c′:6,7-c″]tripyrazole]: the IC50 in experiment [1] came to 124 nM; in experiment [2], 34.7 nM; in experiment [3], 19.5 nM; in experiment [4], 339 nM; in experiment [5], 63.8 nM; in experiment [7], 312 nM.

For the compound `Cc1c2c(nn1C)CN(C)CCOc1c(cnn1C)-c1ccc3[nH]nc(c3c1)/C=C/2` [Example 44, (17E)-8,12,15,16-tetramethyl-2,10,11,12,13,15-hexahydro-8H-3,5-ethenotripyrazolo[3,4-f:3′,4′-j:4″,3″- n][1,4]oxazacyclopentadecine], the IC50 in experiment [1] is 112 nM; in experiment [2], 130 nM; in experiment [3], 27 nM; in experiment [4], 1460 nM; in experiment [5], 285 nM; in experiment [7] it was more than 1000 nM.

Consider `CCc1nn(C)c2c1/C=C/c1n[nH]c3ccc(cc13)-c1cnn(C)c1O[C@@H](C)CCO2` [Ex. 37, (10S,17E)-16-ethyl-8,10,14-trimethyl-2,11,12,14-tetrahydro-8H,10H-3,5-etheno[1,5]dioxacyclopentadecino[10,11-c:15,14-c′:6,7-c″]tripyrazole], for which the IC50 in experiment [1] was 64 nM; in experiment [2] it was 49.9 nM; in experiment [3], 17.3 nM; in experiment [4], 157 nM; in experiment [5], 41.8 nM; in experiment [7], 212 nM.

(Values after US20250353864A1, “INDAZOLE CONTAINING MACROCYCLES AND THEIR USE” (BLOSSOMHILL THERAPEUTICS, INC., priority 2022, published 2025).)
